Laboratory results: US10822587B2, “T cell balance gene expression, compositions of matters and methods of use thereof” (The Broad Institute, Inc., priority 2013, dated 2020)
“Also recorded” adds a separate entry of the source.

What was measured:
Th17 cells = experiment: IL-17 / IFN-γ production of Th17 cells differentiated with activated protein C (intracellular staining, ELISA); assay type: cell-based, mouse; conditions: aPC 300 nM, anti-CD3/anti-CD28, TGF-β+IL-6; flow cytometry day 3, ELISA day 3 and 5
Procedure: FIG. 20A depicts how naïve CD4+ T cells were differentiated into Th17 cells by anti-CD3/anti-CD28 stimulation in the presence of activated protein C (aPC, 300 nM), the ligand of PROCR. On day 3, cells were stimulated with PMA and Ionomycin for 4 hr, stained intracellularly for IFN-γ and IL-17 and analyzed by flow cytometry. FIG. 20B depicts IL-17 production from Th17 cells (TGF-β+IL-6) differentiated with or without activated protein C (aPC and Ctl, respectively) was assessed by ELISA on Day 3 and 5. FIG. 20C depicts how naïve CD4+ T cells were polarized under Th17 conditions (TGF-β+IL-6), transduced with either GFP control retrovirus (Ctl RV) or PROCR-expressing retrovirus (PROCR RV). Intracellular expression of IFN-γ and IL-17 in GFP+ cells were assessed by flow cytometry. FIG. 20D depicts how naïve CD4+ T cells from EPCR δ/δmice and control mice were polarized under Th17 conditions with TGF-β1 and IL-6. Intracellular expression of IFN-γ and IL-17 were assessed by flow cytometry. […]
Naïve T cells from knockout mice and their wild type controls were cultured as described above, their supernatants were collected after 72 h, and cytokine concentrations were determined by ELISA (antibodies for IL-17 and IL-10 from BD Bioscience) or by cytometric bead array for the indicated cytokines (BD Bioscience), according to the manufacturers' instructions (FIG. 5, FIG. 16).

PROCR = biological target: T1, PROCR (Mus musculus, UniProt Q64695); experiment: Quantitative RT-PCR of pathogenic signature genes in Th17 cells differentiated in the presence of activated protein C; assay type: cell-based
T1 construct: endogenous in cells; host or cells: primary naïve CD4+ T cells (mouse spleen/lymph node) polarized to Th17 with TGF-β1 + IL-6
T1 sequence (Q64695 18-242): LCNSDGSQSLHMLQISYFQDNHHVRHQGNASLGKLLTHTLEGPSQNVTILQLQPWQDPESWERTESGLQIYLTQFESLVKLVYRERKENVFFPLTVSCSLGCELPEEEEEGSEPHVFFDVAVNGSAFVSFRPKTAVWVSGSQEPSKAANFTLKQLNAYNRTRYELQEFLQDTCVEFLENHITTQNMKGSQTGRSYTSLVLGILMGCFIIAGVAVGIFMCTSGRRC
From the text: FIG. 23A depicts quantitative RT-PCR analysis of mRNA expression of several pathogenic signature genes in Th17 cells differentiated with TGFβ1 and IL-6 in the presence of activated protein C (aPC) for 3 days in vitro. FIG. 23B depicts quantitative RT-PCR analysis of mRNA expression of several pathogenic signature genes in naïve CD4^+ T cells polarized under Th17 conditions, transduced with either GFP control retrovirus (Control RV) or PROCR-expressing retrovirus (PROCR RV) for 3 days. FIG. 23C depicts quantitative RT-PCR analysis of mRNA expression of several pathogenic signature genes in Th17 cells from EPCR δ/δmice and control mice differentiated with TGFβ1 and IL-6 for 3 days in vitro.
FIGS. 32A, 32B, 32C and 32D are a series of graphs depicting how PROCR and PD-1 expression affects Th17 pathogenicity. FIG. 32A depicts signature genes of pathogenic and non-pathogenic Th17 cells. Naïve CD4+ T cells were differentiated into non-pathogenic (TGFβ+IL-6) or pathogenic (TGFβ3+IL-6 or IL-β+IL-6) Th17 cells and PROCR expression was determined by quantitative PCR. FIG. 32B depicts how naïve WT or PROCRd/d CD4+ T cells were stimulated under Th17 polarizing conditions (TGFβ+IL-6) in the presence or absence of aPC. Quantitative expression of three pathogenic signature genes was determined on day 3. […] Mice were monitored for EAE. […]. […]

activated protein C
cytokine production (IL-17, IFN-γ) from Th17 cells (Th17 cells): not essential for cytokine production from Th17 cells | mRNA expression of pathogenic signature genes (PROCR; Th17 cells differentiated with TGFβ1 and IL-6 in the presence of aPC for 3 days in vitro): impairs some pathogenic signature genes in Th17 cells; also recorded: induces a downregulation of the pathogenic signature genes IL-3, CXCL3, CCL4 and Pdp; also recorded: decreased the expression of some of the genes identified as a part of the pathogenic signature of Th17 cells | expression of non-pathogenic signature genes (PROCR; Th17 polarizing conditions (TGFβ+IL-6) in the presence or absence of aPC, day 3): induces some non-pathogenic signature genes
